We go through seven compounds from US6544989B2, “Benzazoles: benzoxazole, benzthiazole and benzimidazole derivatives” (Syngenta Limited, priority 1998, dated 2003).

For the first series, the system named is Uncinula necator. The experiment in a line: Fungicidal test, Uncinula necator (UNCINE) on vines, PRCO. Format: in vivo. To be noted: METHOD 2 (unbanded).
Consider `Cc1nsc(NC(=O)Cc2ccc3ocnc3c2)c1Cl` [1(A3)], for which the “UNCINE 1 d Prot/Foir PRCO” value is 43.

On to `Cc1nc2cc(CC(=O)Nc3snc(C)c3Cl)ccc2s1` [2(A13)], for which the “UNCINE 1 d Prot/Foir PRCO” value is reported as 72.

In the case of `CCCCc1nc2cc(CC(=O)Nc3snc(C)c3Cl)ccc2o1` [5(A3)], the “UNCINE 1 d Prot/Foir PRCO” value is on record as 72.

As for `Cc1nsc(NC(=O)Cc2ccc3nc(CC(C)(C)C)oc3c2)c1Cl` [15(A23)], the “UNCINE 1 d Prot/Foir PRCO” value is recorded as 100.

For `Cc1nsc(NC(=S)Cc2ccc3oc(CC(C)(C)C)nc3c2)c1Cl` [15(V3)], the “UNCINE 1 d Prot/Foir PRCO” value was 100.

`Cc1nsc(NC(=O)Cc2ccc3oc(C4CCCC4)nc3c2)c1Cl` [28(A3)]: the “UNCINE 1 d Prot/Foir PRCO” value is recorded as 9.

With `Cc1nsc(NC(=O)Cc2ccc3oc(CF)nc3c2)c1Cl` [73(A3)], the “UNCINE 1 d Prot/Foir PRCO” value came out at 93.

The subject of another series is Septoria nodorum. Kind of series: Fungicidal test, Septoria nodorum (LEPTNO) on wheat, PRCO. The class given is in vivo. To be noted: METHOD 2 (unbanded).
As for `Cc1nc2cc(CC(=O)Nc3snc(C)c3Cl)ccc2s1` [2(A13)], the “LEPTNO 1 d Prot/Foir PRCO” value was found to be 62.

`CCCCc1nc2cc(CC(=O)Nc3snc(C)c3Cl)ccc2o1` [5(A3)]: the “LEPTNO 1 d Prot/Foir PRCO” value came out at 30.

With `Cc1nsc(NC(=O)Cc2ccc3nc(CC(C)(C)C)oc3c2)c1Cl` [15(A23)], the “LEPTNO 1 d Prot/Foir PRCO” value is given as 83.

Take `Cc1nsc(NC(=S)Cc2ccc3oc(CC(C)(C)C)nc3c2)c1Cl` [15(V3)]: the “LEPTNO 1 d Prot/Foir PRCO” value is given as −2.

Turning to `Cc1nsc(NC(=O)Cc2ccc3oc(C4CCCC4)nc3c2)c1Cl` [28(A3)], the “LEPTNO 1 d Prot/Foir PRCO” value was 20.

As to `Cc1nsc(NC(=O)Cc2ccc3oc(CF)nc3c2)c1Cl` [73(A3)], the “LEPTNO 1 d Prot/Foir PRCO” value stood at 57.

A further series has as its system Venturia inaequalis. The experiment in a line: Fungicidal test, Venturia inaequalis (VENTIN) on apples, PRCO. The class given is in vivo. To be noted: METHOD 2 (unbanded).
With `Cc1nsc(NC(=O)Cc2ccc3ocnc3c2)c1Cl` [1(A3)], the “VENTIN 1 d Prot/Foir PRCO” value was 25.

`CCCCc1nc2cc(CC(=O)Nc3snc(C)c3Cl)ccc2o1` [5(A3)]: the “VENTIN 1 d Prot/Foir PRCO” value was −10.

Consider `Cc1nsc(NC(=O)Cc2ccc3nc(CC(C)(C)C)oc3c2)c1Cl` [15(A23)], for which the “VENTIN 1 d Prot/Foir PRCO” value is reported as 100.

As to `Cc1nsc(NC(=S)Cc2ccc3oc(CC(C)(C)C)nc3c2)c1Cl` [15(V3)], the “VENTIN 1 d Prot/Foir PRCO” value was 10.

As for `Cc1nsc(NC(=O)Cc2ccc3oc(C4CCCC4)nc3c2)c1Cl` [28(A3)], the “VENTIN 1 d Prot/Foir PRCO” value was 53.

In the next series the test system is Rhizoctonia solani. Kind of series: Fungicidal test, Rhizoctonia solani (RHIZSO) on rice, PRCO. The class given is in vivo. To be noted: METHOD 2 (unbanded).
With `Cc1nc2cc(CC(=O)Nc3snc(C)c3Cl)ccc2s1` [2(A13)], the “RHIZSO 1 d Prot/Foir PRCO” value is reported as 43.

Turning to `Cc1nsc(NC(=O)Cc2ccc3nc(CC(C)(C)C)oc3c2)c1Cl` [15(A23)], the “RHIZSO 1 d Prot/Foir PRCO” value turned out to be 0.

For the compound `Cc1nsc(NC(=S)Cc2ccc3oc(CC(C)(C)C)nc3c2)c1Cl` [15(V3)], the “RHIZSO 1 d Prot/Foir PRCO” value is 0.

As to `Cc1nsc(NC(=O)Cc2ccc3oc(CF)nc3c2)c1Cl` [73(A3)], the “RHIZSO 1 d Prot/Foir PRCO” value is 0.

Another series relates to Puccinia recondita. Kind of series: Fungicidal test, Puccinia recondita (PUCCRT) on wheat, PRCO. To be noted: METHOD 2 (unbanded). Format: in vivo.
Regarding `Cc1nsc(NC(=O)Cc2ccc3ocnc3c2)c1Cl` [1(A3)], the “PUCCRT 1 d Prot/Foir PRCO” value is reported as 59.

Take `Cc1nc2cc(CC(=O)Nc3snc(C)c3Cl)ccc2s1` [2(A13)]: the “PUCCRT 1 d Prot/Foir PRCO” value came out at 99.

Take `CCCCc1nc2cc(CC(=O)Nc3snc(C)c3Cl)ccc2o1` [5(A3)]: the “PUCCRT 1 d Prot/Foir PRCO” value was 88.

`Cc1nsc(NC(=O)Cc2ccc3nc(CC(C)(C)C)oc3c2)c1Cl` [15(A23)]: the “PUCCRT 1 d Prot/Foir PRCO” value amounted to 98.

Regarding `Cc1nsc(NC(=S)Cc2ccc3oc(CC(C)(C)C)nc3c2)c1Cl` [15(V3)], the “PUCCRT 1 d Prot/Foir PRCO” value stood at 100.

For the compound `Cc1nsc(NC(=O)Cc2ccc3oc(C4CCCC4)nc3c2)c1Cl` [28(A3)], the “PUCCRT 1 d Prot/Foir PRCO” value was found to be 86.

In the case of `Cc1nsc(NC(=O)Cc2ccc3oc(CF)nc3c2)c1Cl` [73(A3)], the “PUCCRT 1 d Prot/Foir PRCO” value is 100.

In the next series the test system is Plasmopara viticola. The experiment in a line: Fungicidal test, Plasmopara viticola (PLASVI) on vines, PRCO. The class given is in vivo. To be noted: METHOD 2 (unbanded).
Regarding `Cc1nsc(NC(=O)Cc2ccc3ocnc3c2)c1Cl` [1(A3)], the “PLASVI 1 d Prot/Foir PRCO” value came to 6.

For `CCCCc1nc2cc(CC(=O)Nc3snc(C)c3Cl)ccc2o1` [5(A3)], the “PLASVI 1 d Prot/Foir PRCO” value is 39.

With `Cc1nsc(NC(=O)Cc2ccc3oc(C4CCCC4)nc3c2)c1Cl` [28(A3)], the “PLASVI 1 d Prot/Foir PRCO” value came to 0.

The subject of a further series is Musca domestica.
Assay: not given
To be noted: 500 ppm by weight; knockdown assessed 15 minutes after treatment.
Turning to `Cc1nsc(NC(=O)Cc2ccc3ocnc3c2)c1Cl` [1(A3)], the “MUSCDO AC = Musca domestica (knockdown), score” value (“MUSCDO AC = Musca domestica” for short) is reported as 0 (0 indicates less than 40% mortality).

Consider `Cc1nc2cc(CC(=O)Nc3snc(C)c3Cl)ccc2s1` [2(A13)], for which the “MUSCDO AC = Musca domestica” value is listed as 0 (0 indicates less than 40% mortality).

For the compound `CCCCc1nc2cc(CC(=O)Nc3snc(C)c3Cl)ccc2o1` [5(A3)], the “MUSCDO AC = Musca domestica” value is on record as 0 (0 indicates less than 40% mortality).

As to `Cc1nsc(NC(=O)Cc2ccc3nc(CC(C)(C)C)oc3c2)c1Cl` [15(A23)], the “MUSCDO AC = Musca domestica” value is given as 0 (0 indicates less than 40% mortality).

Regarding `Cc1nsc(NC(=S)Cc2ccc3oc(CC(C)(C)C)nc3c2)c1Cl` [15(V3)], the “MUSCDO AC = Musca domestica” value is 0 (0 indicates less than 40% mortality).

On to `Cc1nsc(NC(=O)Cc2ccc3oc(C4CCCC4)nc3c2)c1Cl` [28(A3)], for which the “MUSCDO AC = Musca domestica” value is recorded as 5 (5 indicates 40-79% mortality).

For the compound `Cc1nsc(NC(=O)Cc2ccc3oc(CF)nc3c2)c1Cl` [73(A3)], the “MUSCDO AC = Musca domestica” value is 0 (0 indicates less than 40% mortality).

A further series has as its system Erysiphe graminis f.sp. tritici. Kind of series: Fungicidal test, Erysiphe graminis f.sp. tritici (ERYSGT) on wheat, PRCO. To be noted: 1 d Prot/Foir; METHOD 2 (unbanded). The class given is in vivo.
For the compound `Cc1nsc(NC(=O)Cc2ccc3ocnc3c2)c1Cl` [1(A3)], the “ERYSGT 1 d Prot/Foir PRCO” value stood at 88.

For `Cc1nc2cc(CC(=O)Nc3snc(C)c3Cl)ccc2s1` [2(A13)], the “ERYSGT 1 d Prot/Foir PRCO” value amounted to 31.

With `CCCCc1nc2cc(CC(=O)Nc3snc(C)c3Cl)ccc2o1` [5(A3)], the “ERYSGT 1 d Prot/Foir PRCO” value turned out to be 40.

For `Cc1nsc(NC(=O)Cc2ccc3nc(CC(C)(C)C)oc3c2)c1Cl` [15(A23)], the “ERYSGT 1 d Prot/Foir PRCO” value is 62.

For `Cc1nsc(NC(=S)Cc2ccc3oc(CC(C)(C)C)nc3c2)c1Cl` [15(V3)], the “ERYSGT 1 d Prot/Foir PRCO” value is 87.

On to `Cc1nsc(NC(=O)Cc2ccc3oc(C4CCCC4)nc3c2)c1Cl` [28(A3)], for which the “ERYSGT 1 d Prot/Foir PRCO” value is listed as 46.

Take `Cc1nsc(NC(=O)Cc2ccc3oc(CF)nc3c2)c1Cl` [73(A3)]: the “ERYSGT 1 d Prot/Foir PRCO” value was 93.

In the next series the test system is Pyricularia oryzae.
Assay: not given
The class given is in vivo. The conditions noted are these: METHOD 2 (unbanded).
With `Cc1nsc(NC(=O)Cc2ccc3ocnc3c2)c1Cl` [1(A3)], the “PYRIOR 1 d Prot/Foir PRCO” value was found to be 91.

In the case of `Cc1nc2cc(CC(=O)Nc3snc(C)c3Cl)ccc2s1` [2(A13)], the “PYRIOR 1 d Prot/Foir PRCO” value is 47.

Turning to `CCCCc1nc2cc(CC(=O)Nc3snc(C)c3Cl)ccc2o1` [5(A3)], the “PYRIOR 1 d Prot/Foir PRCO” value was found to be 31.

With `Cc1nsc(NC(=O)Cc2ccc3nc(CC(C)(C)C)oc3c2)c1Cl` [15(A23)], the “PYRIOR 1 d Prot/Foir PRCO” value stood at 80.

For the compound `Cc1nsc(NC(=S)Cc2ccc3oc(CC(C)(C)C)nc3c2)c1Cl` [15(V3)], the “PYRIOR 1 d Prot/Foir PRCO” value came to 100.

With `Cc1nsc(NC(=O)Cc2ccc3oc(C4CCCC4)nc3c2)c1Cl` [28(A3)], the “PYRIOR 1 d Prot/Foir PRCO” value is 81.

As for `Cc1nsc(NC(=O)Cc2ccc3oc(CF)nc3c2)c1Cl` [73(A3)], the “PYRIOR 1 d Prot/Foir PRCO” value was determined as 100.

The next series relates to Phytophthora infestans lycopersici.
Assay: not given
The conditions noted are these: METHOD 2 (unbanded). Format: in vivo.
As to `Cc1nsc(NC(=O)Cc2ccc3ocnc3c2)c1Cl` [1(A3)], the “PHYTIN 1 d Prot/Foir PRCO” value stood at 100.

For the compound `Cc1nc2cc(CC(=O)Nc3snc(C)c3Cl)ccc2s1` [2(A13)], the “PHYTIN 1 d Prot/Foir PRCO” value is reported as 100.

With `CCCCc1nc2cc(CC(=O)Nc3snc(C)c3Cl)ccc2o1` [5(A3)], the “PHYTIN 1 d Prot/Foir PRCO” value stood at 100.

`Cc1nsc(NC(=O)Cc2ccc3nc(CC(C)(C)C)oc3c2)c1Cl` [15(A23)]: the “PHYTIN 1 d Prot/Foir PRCO” value turned out to be 100.

For `Cc1nsc(NC(=S)Cc2ccc3oc(CC(C)(C)C)nc3c2)c1Cl` [15(V3)], the “PHYTIN 1 d Prot/Foir PRCO” value is listed as 100.

As to `Cc1nsc(NC(=O)Cc2ccc3oc(C4CCCC4)nc3c2)c1Cl` [28(A3)], the “PHYTIN 1 d Prot/Foir PRCO” value is 100.

As to `Cc1nsc(NC(=O)Cc2ccc3oc(CF)nc3c2)c1Cl` [73(A3)], the “PHYTIN 1 d Prot/Foir PRCO” value worked out at 100.

In a further series the test system is Meloidogyne incognita. The experiment in a line: Nematode test, J2 infective juveniles of Meloidogyne incognita, mortality. The conditions noted are these: 12.5 ppm; J2 infective juveniles suspended in solution; mortality after three days.
Consider `Cc1nsc(NC(=O)Cc2ccc3ocnc3c2)c1Cl` [1(A3)], for which the “MELGIN = Meloidogyne incognita, grading of mortality (score)” value (from here on “MELGIN = Meloidogyne incognita, grading”) is 5 (5 indicates 40-79% mortality).

In the case of `Cc1nc2cc(CC(=O)Nc3snc(C)c3Cl)ccc2s1` [2(A13)], the “MELGIN = Meloidogyne incognita, grading” value was 5 (5 indicates 40-79% mortality).

On to `CCCCc1nc2cc(CC(=O)Nc3snc(C)c3Cl)ccc2o1` [5(A3)], for which the “MELGIN = Meloidogyne incognita, grading” value is reported as 0 (0 indicates less than 40% mortality).

For the compound `Cc1nsc(NC(=O)Cc2ccc3nc(CC(C)(C)C)oc3c2)c1Cl` [15(A23)], the “MELGIN = Meloidogyne incognita, grading” value is 0 (0 indicates less than 40% mortality).

Turning to `Cc1nsc(NC(=S)Cc2ccc3oc(CC(C)(C)C)nc3c2)c1Cl` [15(V3)], the “MELGIN = Meloidogyne incognita, grading” value is reported as 0 (0 indicates less than 40% mortality).

In the case of `Cc1nsc(NC(=O)Cc2ccc3oc(C4CCCC4)nc3c2)c1Cl` [28(A3)], the “MELGIN = Meloidogyne incognita, grading” value was 0 (0 indicates less than 40% mortality).

For `Cc1nsc(NC(=O)Cc2ccc3oc(CF)nc3c2)c1Cl` [73(A3)], the “MELGIN = Meloidogyne incognita, grading” value is recorded as 0 (0 indicates less than 40% mortality).
